Results from patent publication US7276514B2, “Pyrroloquinoline quinone drugs for treatment of cardiac injury and methods of use thereof” (Charitable Leadership Foundation - Medical Technology …, priority 2002, dated 2007).
Entries after “also recorded” stand apart in the source; their conditions may differ.

How the values were obtained:
isolated mouse heart [1] = assay: Ex vivo isolated mouse heart (Langendorff), 20 min ischemia followed by 30 min reperfusion
Experimental: Ex vivo studies were performed using an isolated mouse heart preparation employing the Langendorff technique. In this approach, the heart is removed and mounted on a perfusion apparatus in which drugs can be given via an aortic cannula. The heart is paced at a constant rate, and left ventricular developed pressure [LVDP; left ventricular systolic pressure minus left ventricular end-diastolic pressure], left ventricular end-diastolic pressure [LVEDP], and the maximum positive and negative first derivatives of left ventricular pressure [+dP/dtmax and −dP/dtmax] are recorded. The heart is equilibrated for 20 min. After drug or vehicle is infused, the heart is subjected to 20 min of ischemia [coronary flow completely stopped] followed by 30 min of reperfusion. Coronary sinus flow as a reflection of coronary blood flow is also measured. This protocol leads to severe myocardial injury as measured by hemodynamic parameters.

[2] = test system: adult mouse cardiac myocytes; assay: Toxicity of PQQ to cultured adult mouse cardiac myocytes under normoxic conditions; assay type: cell-based; details: 100 μM PQQ
Experimental: The invention encompasses methods of treating or preventing cardiac injury caused by hypoxia or ischemia in a subject, wherein PQQ is administered to a subject in need thereof, such that hypoxia or ischemic-related injury is prevented or decreased. In certain embodiments, the PQQ is administered at a concentration of less than about 10 μM. In other embodiments, the PQQ is administered at a concentration in the range of about 10 nM to about 10 μM, about 10 nM to about 1 μM, 100 nM to about 10 μM, and 100 nM to about 500 nM. In still other embodiments of the invention, the PQQ is administered at a concentration such that the concentration of PQQ at the site of cardiac tissue is in the range of 10 nM to about 10 μM. PQQ may also be administered as a function of the subject's body weight. In some embodiments of the invention, PQQ is administered at a concentration of between about 1 μg/kg to 1 g/kg of a subject's body weight, including less than 500 mg/kg, 250 mg/kg, 100 mg/kg, 10 mg/kg, 5 mg/kg, 2 mg/kg, 1 mg/kg, 500 μg/kg, 250 μg/kg, 100 μg/kg, 10 μg/kg, 5 μg/kg, 2 μg/kg or 1 μg/kg. […]
An in vitro model of cultured adult cardiac mouse myocytes was developed to study cardioprotection by PQQ. […] These cells can be used readily for determination of cell viability by trypan blue exclusion, and for biochemical, immunochemical, and molecular studies. […]

[3] = test system: adult cardiac mouse myocytes; assay: Cultured adult cardiac mouse myocytes exposed to severe hypoxia, viability by trypan blue exclusion; assay type: cell-based
Experimental: An in vitro model of cultured adult cardiac mouse myocytes was developed to study cardioprotection by PQQ. These cells are viable in culture for up to 48 hours at a physiologic pH and consist of >90% rod-shaped cells. These cells can be used readily for determination of cell viability by trypan blue exclusion, and for biochemical, immunochemical, and molecular studies. In this model, approximately 35% of the cells die when exposed to 0% oxygen in a hypoxia chamber for 2-3 hours. […] A higher concentration of PQQ (100 μM) is highly toxic under normoxic conditions as evidenced by 100% cell death.

cardiac myocytes = assay: Cultured cardiac myocytes subjected to oxidative stress by H2O2; assay type: cell-based
Experimental: Cultured cardiac myocytes are subjected to oxidative stress by in vitro administration of H2O2. Two studies are done, one in which PQQ is added in concentrations between 10 nM and less than 10 μM to cardiac myocytes, after which H2O2 is added. In the other study, cardiac myocytes are subjected to insult in vitro admininstration of H2O2 for two hours, after which PQQ is added in concentrations between 10 nM and less than 10 μM. In both studies, PQQ is found to be protective.

isolated mouse heart [4] = assay: Ex vivo isolated mouse heart (Langendorff), 20 min ischemia followed by 30 min reperfusion; details: 100 nM PQQ given at the time of onset of reperfusion
[5] = 100 nM PQQ infused for 2 minutes prior to ischemia

Compound: O=C(O)c1cc(C(=O)O)c2c(n1)C(=O)C(=O)c1cc(C(=O)O)[nH]c1-2 [PQQ, Pyrroloquinoline quinone]
- +dP/dtmax (isolated mouse heart [1]; [5]): track the LVDP results
- left ventricular developed pressure (LVDP) (isolated mouse heart [1]; [5]): significant preservation; also recorded: preserves
- left ventricular end-diastolic pressure (LVEDP) (isolated mouse heart [1]; [5]): preserves
- −dP/dtmax (isolated mouse heart [1]; [5]): track the LVDP results
- toxicity (FIG. 8) (isolated mouse heart [1]; 2 min pretreatment, 10 μM PQQ): toxicity occurs
- hemodynamic response (FIG. 8) (isolated mouse heart [1]; 2 min pretreatment, PQQ between 10 nM and 1 μM): progressively favorable responses
- infarct size (isolated mouse heart [1]; PQQ pretreatment at 10 μM): not reduced
- infarct size (isolated mouse heart [1]; PQQ pretreatment between 10 nM and 1 μM): progressive reduction
- coronary flow (isolated mouse heart [1]; PQQ pretreatment compared to control): significantly improved
- toxicity to cultured adult mouse cardiac myocytes [2]: highly toxic; also recorded: observed
- cell death ([2]; normoxic conditions): 100%
- proportion of viable cells (trypan blue exclusion) after hypoxia ([3]; 1 μM PQQ added 1 hour before severe hypoxia (0% oxygen for 2-3 hours)): significant increase
- PQQ protection against hypoxia-induced cell death in presence of mitochondrial KATP channel inhibitor ([3]; 1 μM PQQ with 100 μM 5-hydroxydecanoic acid): not inhibited
- PQQ protection in presence of mitochondrial KATP channel inhibitor (FIG. 2 legend) ([3]; 10 μM 5-hydroxydecanoic acid): not inhibited
- protection of cardiac myocytes against H2O2 oxidative stress (cardiac myocytes; PQQ between 10 nM and less than 10 μM added after two hours of H2O2): protective
- protection of cardiac myocytes against H2O2 oxidative stress (cardiac myocytes; PQQ between 10 nM and less than 10 μM added before H2O2): protective
- hemodynamic response when given at onset of reperfusion (PQQ tre.) (isolated mouse heart [4]): equivalent to pretreatment
